#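 Exposure lasted 48 hours, with cells grown in 96-well plates and compounds tested at five concentrations. GI50 = concentration required for 50% inhibition of growth.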 Activity calls are given as the source filed them. Rule as the data show it: active = GI50 up to about 1.1 µM and inactive = higher.
# Experiments:
# Assay in all cases: NCI tumour cell line growth inhibition, 48 h
# 786-0 = test system: 786-0
# DU-145 = test system: DU-145
# EKVX = test system: EKVX
# HCT-15 = test system: HCT-15
# HL-60 = test system: HL-60
# HOP-62 = test system: HOP-62
# HT-29 = test system: HT-29
# Hs-578T = test system: Hs-578T
# KM12 = test system: KM12
# Malme-3M = test system: Malme-3M
# NCI-H460 = test system: NCI-H460
# OVCAR-8 = test system: OVCAR-8
# SK-MEL-5 = test system: SK-MEL-5
# SNB-19 = test system: SNB-19
# SW-620 = test system: SW-620
# UACC-257 = test system: UACC-257
# MOLT-4 = test system: MOLT-4
# OVCAR-4 = test system: OVCAR-4
# MDA-N = test system: MDA-N
SMILES,GI50 (786-0),GI50 (DU-145),GI50 (EKVX),GI50 (HCT-15) [µM],GI50 (HL-60),GI50 (HOP-62),GI50 (HT-29),GI50 (Hs-578T),GI50 (KM12),GI50 (Malme-3M),GI50 (NCI-H460),GI50 (OVCAR-8),GI50 (SK-MEL-5),GI50 (SNB-19),GI50 (SW-620),GI50 (UACC-257),GI50 (MOLT-4),GI50 (OVCAR-4),GI50 (MDA-N)
O=C(Oc1c(I)ccccc1=O)c1ccc([N+](=O)[O-])cc1,26.9 µM (inactive),11.7 µM (inactive),12.4 µM (inactive),12.9,18.2 µM (inactive),33.3 µM (inactive),12.3 µM (inactive),24.8 µM (inactive),18.9 µM (inactive),14.6 µM (inactive),11.4 µM (inactive),22.3 µM (inactive),0.51 µM (active),20.4 µM (inactive),30.1 µM (inactive),17 µM (inactive),–,–,–
COc1cc2c(cc1OC)-c1cc3cc(OC)c(OC)cc3n1CC2,23.4 µM (inactive),–,> 100 µM (inactive),–,> 100 µM (inactive),31.6 µM (inactive),16.6 µM (inactive),–,38.5 µM (inactive),23.8 µM (inactive),36 µM (inactive),24.1 µM (inactive),–,25.8 µM (inactive),33.9 µM (inactive),56 µM (inactive),> 100 µM (inactive),22.7 µM (inactive),–
COc1ccccc1C1c2cc3c(cc2OC(N2CCOCC2)C1C)OCO3 (stereo not given),18.9 µM (inactive),18.5 µM (inactive),20.6 µM (inactive),16.7,–,17.8 µM (inactive),16.9 µM (inactive),13.2 µM (inactive),16.4 µM (inactive),–,16.6 µM (inactive),28.3 µM (inactive),15.4 µM (inactive),14 µM (inactive),17.7 µM (inactive),15.8 µM (inactive),17.1 µM (inactive),–,10.5 µM (inactive)
O=[N+]([O-])c1ccc2c(c1)S(=O)(=O)N1Cc3ccccc3CCN21,97.5 µM (inactive),> 100 µM (inactive),13.3 µM (inactive),> 100,> 100 µM (inactive),> 100 µM (inactive),> 100 µM (inactive),26.7 µM (inactive),> 100 µM (inactive),> 100 µM (inactive),> 100 µM (inactive),> 100 µM (inactive),> 100 µM (inactive),35 µM (inactive),> 100 µM (inactive),29.1 µM (inactive),> 100 µM (inactive),> 100 µM (inactive),–
COC(=O)c1cc(O)ccc1NC(=O)c1ccc(O)cc1,> 100 µM (inactive),–,> 100 µM (inactive),> 100,> 100 µM (inactive),> 100 µM (inactive),> 100 µM (inactive),–,> 100 µM (inactive),> 100 µM (inactive),> 100 µM (inactive),> 100 µM (inactive),> 100 µM (inactive),> 100 µM (inactive),> 100 µM (inactive),> 100 µM (inactive),> 100 µM (inactive),> 100 µM (inactive),–
CC1CC(N2CCOCC2)=Nc2ccccc2N1Cc1ccccc1 (stereo not given),> 100 µM (inactive),> 100 µM (inactive),90.6 µM (inactive),> 100,29.8 µM (inactive),58.1 µM (inactive),38.7 µM (inactive),34.4 µM (inactive),68.7 µM (inactive),19 µM (inactive),> 100 µM (inactive),88.5 µM (inactive),36.3 µM (inactive),> 100 µM (inactive),> 100 µM (inactive),38.3 µM (inactive),–,56.2 µM (inactive),–
NC(Cc1ccccc1)P(=O)(O)O (stereo not given),> 100 µM (inactive),–,> 100 µM (inactive),> 100,> 100 µM (inactive),> 100 µM (inactive),> 100 µM (inactive),> 100 µM (inactive),> 100 µM (inactive),> 100 µM (inactive),> 100 µM (inactive),> 100 µM (inactive),> 100 µM (inactive),> 100 µM (inactive),> 100 µM (inactive),> 100 µM (inactive),> 100 µM (inactive),> 100 µM (inactive),> 100 µM (inactive)
O=S(=O)([C-]([I+]c1ccccc1)S(=O)(=O)C(F)(F)C(F)(F)C(F)(F)C(F)(F)F)C(F)(F)C(F)(F)C(F)(F)C(F)(F)F,14.9 µM (inactive),–,13.5 µM (inactive),15.2,4.67 µM (inactive),16.8 µM (inactive),17.4 µM (inactive),20.1 µM (inactive),21.5 µM (inactive),11 µM (inactive),17.7 µM (inactive),> 10 µM (inactive),14.4 µM (inactive),15.2 µM (inactive),5.69 µM (inactive),17.6 µM (inactive),3.51 µM (inactive),2.95 µM (inactive),–
CC(C)(Oc1ccc(/C=C/C(=O)c2ccc(Cl)cc2)cc1)C(=O)Nc1c(Cl)cccc1Cl,19.6 µM (inactive),–,57.8 µM (inactive),15.1,–,72.3 µM (inactive),13.3 µM (inactive),–,11.8 µM (inactive),19.7 µM (inactive),31.6 µM (inactive),14.1 µM (inactive),18.2 µM (inactive),33.8 µM (inactive),12.8 µM (inactive),30.9 µM (inactive),6.32 µM (inactive),23.4 µM (inactive),–
COP(=O)(OC)OCN(C)CC/C=C(\C)CC/C=C(\C)CCC=C(C)C,15.1 µM (inactive),–,29.2 µM (inactive),16,–,16.1 µM (inactive),–,–,15.2 µM (inactive),14.9 µM (inactive),11.7 µM (inactive),16 µM (inactive),11.8 µM (inactive),10.4 µM (inactive),15.6 µM (inactive),5.02 µM (inactive),13.6 µM (inactive),31.3 µM (inactive),14.9 µM (inactive)
CC(C)C(=O)NS(=O)(=O)c1ccccc1,> 100 µM (inactive),–,> 100 µM (inactive),–,> 100 µM (inactive),> 100 µM (inactive),> 100 µM (inactive),–,> 100 µM (inactive),> 100 µM (inactive),> 100 µM (inactive),> 100 µM (inactive),–,> 100 µM (inactive),> 100 µM (inactive),> 100 µM (inactive),> 100 µM (inactive),> 100 µM (inactive),–
COc1cc(C(c2cc3c(cc2O)OCO3)N2CCCC2)cc(OC)c1OC (stereo not given),14.7 µM (inactive),19.3 µM (inactive),14.7 µM (inactive),8.43,2.07 µM (inactive),30.5 µM (inactive),10.4 µM (inactive),–,18.2 µM (inactive),6.73 µM (inactive),–,16.1 µM (inactive),16.4 µM (inactive),19.3 µM (inactive),3.4 µM (inactive),17.5 µM (inactive),3.96 µM (inactive),17 µM (inactive),13.4 µM (inactive)
N#CCc1nc(O)c2ccccc2n1,> 100 µM (inactive),> 100 µM (inactive),> 100 µM (inactive),48,28.3 µM (inactive),> 100 µM (inactive),> 100 µM (inactive),–,> 100 µM (inactive),–,> 100 µM (inactive),> 100 µM (inactive),> 100 µM (inactive),> 100 µM (inactive),> 100 µM (inactive),> 100 µM (inactive),39.7 µM (inactive),> 100 µM (inactive),> 100 µM (inactive)
